Consider two compounds from US12589087B2, “Enantiomer selective action on neurotransmission” (The Board of Trustees of the Leland Stanford Junior …, priority 2021, dated 2026).

The nature of data set [1]: Metabolism in synaptosomes (GABA shunt, glutamate-glutamine cycle). In kind it is in vitro ADME. Conditions: mouse, mouse cerebral synaptosomes; synaptosomes preincubated with 100 μM, normal KRP buffer, 37° C.; read-out: synaptosomal concentration, estimated half life. The protocol:
To each tube, a 5 μL aliquot of a test compound solution (final concentration 100 μM) in Buffer KRP or Buffer KRP alone were added. The samples were incubated for 15 min at 37° C., briefly chilled on ice, and then immediately centrifuged and washed twice by resuspension-centrifugation with Buffer S (0.5 mL). The pellets were then resuspended in Buffer KRP (500 μL). Samples were then immediately centrifuged or incubated for 5, 10, 15, 20, 25 or 30 min at 37° C. and then centrifuged and washed by resuspension-centrifugation with Buffer S (0.5 mL). Resulting pellets were resuspended in 170 μL of 0.1% aqueous formic acid, mixed with 330 μL of ACN.
To each tube, 5 μL of 2MeGlu solution (final concentration 100 μM) in Buffer KRP or Buffer KRP alone were added. The samples were incubated for 15 min at 37° C., briefly chilled on ice, and then immediately centrifuged and washed twice by resuspension-centrifugation with Buffer S (0.5 mL). The pellets were then resuspended in Buffer KRP (200 μL). Samples were then kept on ice or incubated for 10, 20, 30, 40 or 50 min at 37° C. and then chilled on ice. Then all samples were centrifuged, 200 μL of supernatants were collected, and the pellets were suspended in 200 μL of 80% ACN. Supernatants and pellet suspensions were diluted with 250 μL of ACN and 50 μL of 10 μM d5-Glu in water as internal standard.

In data set [2] the test system is mouse hippocampal slice cultures. The experiment in a line: Kainic acid neurodegeneration in hippocampal slice cultures (propidium iodide). The format is cell-based. How it is done:
We employed a standard technique of ex vivo experimentation to determine the efficacy of 2MeGlu, 2MeGln, and 4APA to prevent neurodegeneration. Mouse hippocampal slice cultures were prepared and then exposed to one of the three test compounds at either 5 or 50 μM for one hour. Then media was changed to contain either 2 or 5 μM kanic acid (KA) for 24 hr. […] After 24, the amount of neurodegeneration was assayed with propidium iodide staining. Increasing the dose of KA led to greater neurodegeneration at 5 μM than at 2 μM.

Data set [3] has as its system murine primary cerebral cortical neuron cultures. Briefly: Neuronal transport and metabolism of 2MeGln. In kind it is cell-based, mouse. The conditions noted are these: 1 mM substrate, 2 h, 37° C., neurons. How it is done: The procedure was adapted from an existing protocol. Wild-type (WT) C57BL/6J mating pairs were housed according to Stanford IACUC protocol. On day P0, pups were euthanized and brains dissected in cold HBSS (without Ca^2+ or Mg^2+). The forebrain was microdissected to isolate the cortex and hippocampus. These brain regions were minced in cold HBSS before trypsinization at 37° C. for 9 minutes, followed by trituration, through 2 glass polished Pasteur pipettes. The resulting cell suspension was passed through a 100 μm filter to isolate single cells which were sedimented at 250 g for 5 minutes. The cell pellet was then resuspended in complete Neural Basal Media (Neural Basal Media+Glutamax+B-27 Plus Supplement+Pen/Strep)+10% FBS, counted using a hemocytometer and plated at 1×10^6 cells per mL into a 24 well plate (1 mL per well) coated with poly-D-lysine and laminin. Cultures were grown at 37° C./5% CO2 in a tissue culture incubator. Media was exchanged 50% on day 1 in vitro (1 DIV) with fresh complete Neural Basal Media without FBS and thereafter every other day with the same media. On 3 DIV the media was spiked with 2 μM AraC to limit glial growth. On 10 DIV the media was completely replaced with 500 μL Neural Basal Media containing B-27 Plus Supplement+Pen/Strep without added Glutamax but instead containing 1 mM substrate at 37° C. for 2 h. […]

Data set [4] addresses T1, human glutaminase GLS1 (Homo sapiens, UniProt O94925).
T1 construct: purchased Sigma SRP0516
T1 sequence (O94925 55-669): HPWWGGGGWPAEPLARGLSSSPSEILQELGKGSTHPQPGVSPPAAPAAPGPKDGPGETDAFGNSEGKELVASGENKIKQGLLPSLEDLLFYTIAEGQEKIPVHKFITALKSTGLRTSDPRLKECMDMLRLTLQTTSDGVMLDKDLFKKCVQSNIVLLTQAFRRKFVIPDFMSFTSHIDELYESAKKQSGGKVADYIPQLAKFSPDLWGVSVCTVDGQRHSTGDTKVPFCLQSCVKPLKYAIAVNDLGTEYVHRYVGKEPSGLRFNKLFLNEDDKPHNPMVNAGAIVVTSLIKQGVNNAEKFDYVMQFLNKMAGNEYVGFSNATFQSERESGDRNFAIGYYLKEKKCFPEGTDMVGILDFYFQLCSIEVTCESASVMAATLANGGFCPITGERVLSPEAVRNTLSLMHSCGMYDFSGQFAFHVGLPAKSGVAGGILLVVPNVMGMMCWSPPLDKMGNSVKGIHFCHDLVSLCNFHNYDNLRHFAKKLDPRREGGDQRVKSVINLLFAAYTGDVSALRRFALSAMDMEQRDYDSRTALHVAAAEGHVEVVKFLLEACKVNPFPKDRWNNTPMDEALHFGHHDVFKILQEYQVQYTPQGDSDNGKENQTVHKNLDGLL
The experiment in a line: Catalysis of 2MeGln hydrolysis by GLS1 glutaminase. The conditions noted are these: 10 mM substrate, 5 ng/mL enzyme, phosphate pH 7.4. The format is biochemical. The protocol:
The procedure was adapted from an existing protocol. To a reaction mixture in a 1.5 mL microcentrifuge tube containing 10 mM rac-2MeGln or L-Gln-^13C2 in 100 mM phosphate pH 7.4 buffer made in 20% atom ^18O water, recombinant GLS1 (final concentration: 5 ng/mL) was added. The tubes were incubated in a preheated thermomixer at 37° C. and periodically shaken at 600 rpm (30 s on, 30 s off). 5 μL aliquots were collected in triplicate every 5 min and immediately diluted with 195 μL of cold 60% ACN containing 10 μM Glu-d5 and Gln-d5 as internal standards in a 96 well plate. After collecting all samples, the plate was shaken at 1000 rpm for 5 min at room temperature, and then stored at −80° C. Before analysis the plate was thawed and 10 μL aliquots of the extracted reaction mixtures were diluted with 190 μL of 90% acetonitrile.
The quantification of the newly formed 2MeGlu in the presence of the preexisting trace amounts was performed in the following way. Peak area ratio of Glu-^13C2 to Glu-^13C2^18O was calculated in all samples containing Glu-^13C2. The mean ratio value was then applied to calculate the hypothetical peak area of the newly formed 2MeGlu based on the directly measured 2MeGlu-^18O peak area. The ratio of the newly formed 2MeGlu peak area and the total 2MeGlu peak area was applied to calculate the concentration of the newly formed 2MeGlu from the total 2MeGlu concentration determined directly using the calibration curve.

Structures are written as SMILES.

With `CC(N)(CCC(=O)O)C(=O)O` (racemic) [rac-2MeGlu, rac-2-Methylglutamic acid], in data set [1], the half-life at 100 μM was 21 min. In addition, the reduction of neurodegeneration entry in data set [2] (50 μM compound, lower dose of KA (2 μM)) was “approximately 50%”. Also, the “neuroprotection at the higher dose of KA” value in data set [2] (5 or 50 μM compound, 5 μM KA) was “Neither dose of 2MeGlu or 2MeGln was neuroprotective”.
Consider `NC(=O)CC[C@H](N)C(=O)O` [Gln, L-glutamine, reference compound], for which the “intracellular [1,2-13C]Gln, lower than 2MeGln in corresponding samples” value in data set [3] turned out to be 2 fold. Also, in data set [4], the “apparent reaction rate of GLS1 hydrolysis” value amounted to 65 µM/min.
